Like-named read-outs stand apart in the source and are kept apart here. A value given as a limit tells only on which side of the number the result lay.

Data set [1] is described as follows: Human, rat, and mouse microsome stability assay. The following applies: Sprague-Dawley (rat), CD1 (mouse), pH 7.4, rat, and mouse liver microsomes, 0.5 μM compound, 0.25 mg/mL microsomal protein, 37° C., read-out: intrinsic clearance Clint. In kind it is in vitro ADME. The protocol:
Human, Rat, and Mouse Microsome Stability Assay
Human, rat, and mouse liver microsomal incubations were carried out at 37° C. with a final incubation volume of 135 μL. Human liver microsomes (mixed gender, Catalog No. H2610) were obtained from XenoTech. Rat liver microsomes (male Sprague-Dawley, Catalog No. 452501) were obtained from BD Gentest. Mouse liver microsomes (male CD1, Catalog No. 452701) were obtained from BD Gentest. Incubations were conducted using a test compound (initially dissolved in DMSO at […] concentration) concentration of 0.5 μM and 0.25 mg/mL microsomal protein in 50 mM phosphate buffer at pH 7.4. Time zero samples were prepared by transferring 13.5 μL of compound-microsomal mix to the quench plates containing 45 μL of quench solution made of 10 nM Buspirone (Sigma) or 50 nM Carbutamide (Princeton Bio) as internal standard in 1:1 methanol:acetonitrile. An aliquot of 1.5 μL Nicotinamide adenine dinucleotide phosphate reduced tetrasodium salt (NADPH) was also added to the time zero plates. The reaction was then initiated by the addition of 13.5 μL NADPH to the compound-microsomal mix. At each of the remaining time points (5, 10, 15, 20, 30, 45 and 60 min) 15 μL of incubation mixture was added to 45 μL of quench solution. Samples were centrifuged for 15-30 minutes at 3800 rpm. Samples were then pooled for 6 per group. An aliquot of 60 μL of supernatant was transferred to 96-well plate, and a 5 μL aliquot was injected and analyzed by LC-MS (Applied Biosystems API 5500 QTrap).

For data set [2], the target named is T1, first bromodomain (BrD1) of human BRD4 (Homo sapiens, UniProt O60885).
T1 construct: the first bromodomain (BrD1) of human BRD4; poly-His (cleaved yes); made in house
As to the kind of experiment: Fluorescence anisotropy binding assay (competition with FITC-labeled MS417 probe). The following applies: FITC-MS417 probe 80 nM, PBS pH 7.4, 1 hour, 25° C., read-out: BRD4_1 IC50. Summed up: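 Competitive fluorescence anisotropy in PBS pH 7.4: 80 nM FITC-MS417 probe, 0.25 to 1 μM tag-cleaved BrD1, titrated unlabeled ligand, 1 hour at 25° C. IC50 values were fitted and converted to Ki using a corrected Cheng-Prusoff equation assuming one-site competition.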
For orientation: Fluorescence polarisation rises when a labelled molecule tumbles more slowly, as on binding a larger partner.

The next data set addresses T2, BRD4_2 (Homo sapiens, UniProt O60885).
T2 construct: contains two tandem bromodomains (BrD1 and BrD2)
As to the kind of experiment: Fluorescence anisotropy binding assay (competition with FITC-labeled MS417 probe), BRD4_2. The following applies: FITC-MS417 probe 80 nM, PBS pH 7.4, 1 hour, 25° C.

The subject of data set [3] is mRNA transcript levels of cytokines IL-6, IL-1β and TNFα in RAW264.7 cells. In words: LPS-induced transcriptional activation of cytokines in murine macrophage cells (quantitative PCR). In kind it is cell-based. The following applies: Mus musculus. The procedure:
LPS-Induced Transcriptional Activation of Cytokines in Murine Macrophage Cells RAW264.7 cells were cultivated with or without a treatment of the compounds as described above. Total RNA was isolated the cells using TRIzol reagent (Gibco, Grand Island, N.Y.) for homogenization. The concentration and integrity of RNA were determined by measuring absorbance at a 260 nm/280 nm ratio. Quantitative PCR was performed to determine the mRNA transcript levels of cytokines IL-6, IL-1β and TNFα with specific primers for these target genes. Each experiment was performed at least in triplicate, and plotted using Prim, and an IC50 value was calculated.

For data set [4], the system named is IL-6 secretion in RAW264.7 cells. In words: LPS-induced IL-6 secretion in murine macrophage RAW264.7 cells (ELISA). It is filed as cell-based. The following applies: LPS 1 μg/ml, 24 hours, mouse IL-6 ELISA. The procedure:
LPS-Induced IL-6Secretion In Murine Macrophage Raw264.7 Cells RAW264.7 cells were cultivated in Dulbecco's modified Eagle medium (DMEM) (Hyclone, Logan, Utah) supplemented with 10% FBS (fetal bovine serum) (Hyclone, Logan, Utah) at 37° C. in a humidified atmosphere of 5% CO2. Cells in 96-well plates (0.1 ml, 3×10^5 cells/ml) were treated with the test compounds. After 30 min, all supernatants were removed and cells were treated with LPS (lipopolysaccharide) (1 μg/ml) (Sigma-Aldrich Chemical Co., St. Louis, Mo.) and compounds. After 24 hours, the supernatant was collected and mouse IL-6 protein level was measured using ELISA (enzyme-linked immunosorbent assay) (Thermo Scientific, Pittsburgh, Pa.). The compounds dissolved in DMSO were diluted with culture medium to concentrations from 0.28 to 50,000 nM. The final concentration of DMSO was adjusted to 0.05% (v/v). The assay was measured by an absorption reading at 570 nm using EnVison 2104 Multilabel Reader (PerkinElmer, Inc., Waltham, Mass.). Each experiment was performed at least in triplicate, and plotted using Prim, and an IC50 value was calculated.

For data set [5], the system named is NO release in RAW264.7 cells. As to the kind of experiment: LPS-stimulated nitric oxide (NO) release in murine macrophage RAW264.7 cells (Griess reaction). It is filed as cell-based. As to conditions: Mus musculus; RAW264.7 cells, LPS 1 μg/ml, 24 hours, nitrite by Griess reaction; read-out: IC50 in inhibition of LPS-induced NO release. The protocol: LPS-Stimulated Nitric Oxide (NO) Release in Murine Macrophage RAW264.7 Cells
RAW264.7 cells was cultivated in DMEM supplemented with 10% FBS at 37° C. in a humidified atmosphere of 5% CO2. Cells in 96-well plates (0.1 ml, 3×10^5 cells/ml) were treated with the test compounds. After 30 min, all supernatants were removed and cells were treated with LPS (1 μg/ml) and the test compounds. After 24 hours, the level of nitrite was measured using Griess reaction G2930 (Promega Corp., Madison, Wis.) [see Bredt and Snyder, Ann Rev Biochem 63, 175-195 (1994)]. The test compounds dissolved in DMSO were diluted with culture medium to concentrations from 0.28 to 50,000 nM. The final concentration of DMSO was adjusted to 0.05% (v/v). The nitrite production was measured by spectrophotometry at 520 nm using EnVison 2104 Multilabel Reader (PerkinElmer, Inc., Waltham, Mass.). Each experiment was performed at least in triplicate and plotted using Prism.
On the technique in general: Nitrite, measured by Griess reagent, commonly stands in for NO production.

Data set [6] concerns T-cell-transfer colitis model in Rag1−/− mice. In words: T-cell-transfer colitis study and histopathology. It is filed as in vivo. From the text: FIG. 1 is a graph of body weight as percent change from baseline vs time (in weeks) for treated and untreated mice in which inflammatory colitis has been induced.
FIG. 2 is a gray-scale rendering of a photograph showing the gross morphology of the intestines for treated and untreated mice in which inflammatory colitis has been induced compared to a normal (control) intestine.
T-Cell-Transfer Colitis Study and Histopathology
After 5-7 weeks, mice were killed and colon tissues were excised. Tissues were fixed in 10% buffered formalin and paraffin embedded. The sections (5 μm) of tissue samples stained with hematoxylin and eosin. All the slides were read and scored by an experienced pathologist without previous knowledge of the type of treatment. The degree of inflammation in the epithelium, submucosa and muscularis propria was scored separately.

The subject of data set [7] is IL-8 expression in human basal-like breast cancer cells (BLBCs). As to the kind of experiment: ELISA assay assessing IL-8 expression in BLBCs. It is filed as cell-based. As to conditions: read-out: IC50, inhibition of IL-8 expression. The protocol: ELISA Assay Assessing IL-8 Expression in BLBCs […] The following day upon cells adhesion to the plate bottom, all supernatants were carefully discarded followed by adding test compounds diluted in culturing medium. The test compounds dissolved in DMSO (Sigma-Aldrich Chemical Co., St. […] The final concentration of DMSO was adjusted to 0.05% (v/v). At the end of 24-hour incubation, all supernatants were carefully removed and stored at −80° C. if the subsequent steps would not be performed immediately. The Human IL-8 ELISA Ready-Set-Go! (2nd generation) is used (Catalog No. 88-8086) against the prepared samples. The samples along with the Standard Human IL-8 Recombinant Protein (prepared in duplicates in a 2-fold serial dilution from 250 pg/ml to 2 pg/ml) were incubated overnight for maximal sensitivity. The assay was measured by an absorption reading at 450 nm using EnVision 2104 Multilabel Reader (PerkinElmer, Inc., Waltham, Mass.). Each experiment was performed at least in duplicate and plotted using Prism. The curve fitting equation used was “log(inhibitor) vs. response variable slope (four parameters)”.
In general terms: In an ELISA, binding on a coated surface is turned into a signal by an enzyme label.

The subject of data set [8] is primary human AML stem- and progenitor cells. As to conditions: cited from earlier work.
For another data set, the system named is HIV-1 transgenic mice. The following applies: model for HIV-associated nephropathy; cited from earlier work.
Setting [9] is: panel of human BLBC cells MDA-MB-435S, MDA-MB-231, BT-549, MDA-MB-157, HS578T, SUM1315, 24-hour incubation.

The compound `CC1=C(Nc2ccc3cc(C(=O)O)ccc3c2)CCCC1=O` [Example 01-41, 6((2-methyl-3-oxocyclohex-1-en-1-yl)amino)-2-naphthoic acid] registered a melting point of 259 to 263 °C. For the same compound, the microsomal CLint at 0.5 μM in data set [1] is 25 to 250 µL/min/mg. In addition, the IC50 in data set [2] lay in the range of 1000 to 10000 nM. For the same compound, the IC50 at BRD4_2 lay in the range of 1000 to 10000 nM.

On to `COc1ccc(NC(=O)c2ccc(NC3=C(C)C(=O)CC3)c(Cl)c2)cc1` [Example 04-19, 3-chloro-N-(4-methoxyphenyl)-4-((2-methyl-3-oxocyclopent-1-en-1-yl)amino)benzamide], for which the IC50 in data set [3] (RAW264.7 cells, LPS, quantitative PCR of mRNA transcript levels, read-out: IC50 in inhibition of transcriptional activation of the cytokines IL-6, IL-1β and TNFα) was 100 to 5000 nM; in data set [2], under 1000 nM; in data set [4] it was 200 to 1000 nM; in data set [5], 100 to 5000 nM; on BRD4_2, 1000 to 10000 nM. For the same compound, in data set [6] (CD4+CD45RBhi T cells injected intra-peritoneally into Rag1−/− mice), the development of colitis entry is given as “inhibits the development of colitis”. Moreover, the “gross morphology of the intestines” value in data set [6] (after 5-7 weeks, FIG. 2, treated mice vs disease group) is “gross morphology of the intestines is preserved”. The “loss of body weight” value in data set [6] (mice weighed every week, FIG. 1) is reported as “significantly (P<0.05) inhibits the loss of body weight”.

Consider `CC1=C(Nc2ccc(C(=O)Nc3ccccc3C)cc2Cl)CCC1=O` [Example 04-20, 3-chloro-4-((2-methyl-3-oxocyclopent-1-en-1-yl)amino)-N-(o-tolyl)benzamide], for which the IC50 in data set [3] (RAW264.7, read-out: IC50 in inhibition of transcriptional activation of the cytokines IL-6, IL-1β and TNFα) is 100 to 5000 nM; in data set [2] it was under 1000 nM; in data set [4], 200 to 1000 nM; in data set [5], 100 to 5000 nM; at BRD4_2, 1000 to 10000 nM.

`CC1=C(Nc2cc(NS(=O)(=O)c3ccccc3C)ccc2Cl)CCC1=O` [Example 05-57, N-(4-chloro-3-((2-methyl-3-oxocyclopent-1-en-1-yl)amino)phenyl)-2-methylbenzenesulfonamide]: the melting point was 236 to 238 °C. Also, the microsomal CLint at 0.5 μM in [1] is 25 to 250 µL/min/mg. The IC50 in data set [7] (Homo sapiens, 24 h) fell in the range of 100 to 1000 nM. Also, the IC50 in [2] was under 1000 nM. For the same compound, on BRD4_2, the half-maximal inhibitory concentration (IC50) is under 1000 nM.

In the case of `CC1=C(Nc2cc(NS(=O)(=O)c3ccccc3C)ccc2Cl)CCCC1=O` [Example 05-66, N-(4-chloro-3-((2-methyl-3-oxocyclohex-1-en-1-yl)amino)phenyl)-2-methylbenzenesulfonamide], the melting point lay in the range of 246 to 248 °C. The microsomal CLint at 0.5 μM in data set [1] lay within 25 to 250 µL/min/mg. For the same compound, the half-maximal inhibitory concentration (IC50) in [2] was under 1000 nM. For the same compound, the IC50 at BRD4_2 is under 1000 nM.

In the case of `CC1=C(Nc2ccc(NS(=O)(=O)c3ccccc3C)cc2Cl)CCCC1=O` [Example 05-68, N-(3-chloro-4-((2-methyl-3-oxocyclohex-1-en-1-yl)amino)phenyl)-2-methylbenzenesulfonamide], the melting point fell in the range of 248 to 250 °C. For the same compound, the microsomal CLint at 0.5 μM in data set [1] was in the range of 25 to 250 µL/min/mg. In addition, in data set [7] (setting [9]), the IC50 lay in the range of 100 to 1000 nM. Further, the IC50 in [2] is under 1000 nM. Moreover, the IC50 at BRD4_2 was in the range of 1000 to 10000 nM.

Compound `CC1=C(Nc2cccc(NS(=O)(=O)c3ccccc3C)c2Cl)CCCC1=O` [Example 05-70, N-(2-chloro-3-((2-methyl-3-oxocyclohex-1-en-1-yl)amino)phenyl)-2-methylbenzenesulfonamide] displayed a melting point of 185 to 187 °C. In [1], the microsomal CLint at 0.5 μM was 25 to 250 µL/min/mg. The IC50 in data set [7] (setting [9]) fell in the range of 100 to 1000 nM. Besides, the IC50 in [2] is under 1000 nM. Also, the IC50 at BRD4_2 is over 10000 nM.

For the compound `Cc1sc2c(c1C)C(c1ccc(Cl)cc1)=N[C@@H](CC(=O)OC(C)(C)C)c1nnc(C)n1-2` [JQ1], in data set [8] (all donors), the “apoptosis in CD34+/CD38− and CD34+/CD38+ stem- and progenitor cells” value is recorded as “induce apoptosis”. Also, in data set [8] (primary human AML stem- and progenitor cells, including relapsed or refractory patients), the growth-inhibition and apoptosis entry is “leads to growth-inhibition and apoptosis”.

Turning to `COC(=O)C[C@@H]1N=C(c2ccc(Cl)cc2)c2c(sc(C)c2C)-n2c(C)nnc21` [MS417], the “inflammation and kidney injury” value in the data set on HIV-1 transgenic mice was “effectively ameliorated inflammation and kidney injury”.

One may read the IC50 as the concentration that inhibits the measured activity by half. The term melting point denotes the temperature, or range, at which the solid turns liquid.

Source of the values: patent US9884806B2, “Cyclic vinylogous amides as bromodomain inhibitors” (ICAHN SCHOOL OF MEDICINE AT MOUNT SINAI, priority 2013, dated 2018).
